We go through seven molecules from ChEMBL document CHEMBL3870357, “2-Hydroxypyridine-N-oxide-Embedded Aurones as Potent Human Tyrosinase Inhibitors” (ACS Med Chem Lett, 2017).

For orientation: IC50 means the midpoint of a concentration-inhibition curve. One may read the Ki as a dissociation constant, usually derived from enzyme kinetics or from competition with a known ligand.

Molecules are shown by their SMILES.

A short description of data set [1]: Inhibition of mushroom TyM1 preincubated for 5 mins followed by addition of L-DOPA as substrate measured for 5 mins by spectroscopic method. The arrangement: species or system Agaricus bisporus.
Data set [2] concerns the target T1, Tyrosinase (Homo sapiens, UniProt P14679).
T1 sequence (P14679 whole entry): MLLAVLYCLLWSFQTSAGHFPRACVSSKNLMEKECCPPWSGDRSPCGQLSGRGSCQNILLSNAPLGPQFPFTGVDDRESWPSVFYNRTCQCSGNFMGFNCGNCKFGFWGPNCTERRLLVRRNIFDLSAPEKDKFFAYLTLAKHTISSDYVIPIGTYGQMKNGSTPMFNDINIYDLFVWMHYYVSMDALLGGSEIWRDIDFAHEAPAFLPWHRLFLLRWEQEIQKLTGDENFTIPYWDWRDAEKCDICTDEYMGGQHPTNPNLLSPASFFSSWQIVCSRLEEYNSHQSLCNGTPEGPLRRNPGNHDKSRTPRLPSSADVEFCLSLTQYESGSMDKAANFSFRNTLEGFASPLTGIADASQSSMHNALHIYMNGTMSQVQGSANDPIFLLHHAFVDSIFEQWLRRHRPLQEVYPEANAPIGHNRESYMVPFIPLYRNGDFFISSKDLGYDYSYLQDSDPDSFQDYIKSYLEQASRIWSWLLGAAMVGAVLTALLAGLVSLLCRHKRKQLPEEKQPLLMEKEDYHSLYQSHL
Put plainly: Inhibition of tyrosinase in human MNT1 cell lysate pretreated prior to addition of L-DOPA as substrate measured after 3 hrs. The format is cell-based.

Data set [3] has as its target T1, Tyrosinase. Nature of the data set: Inhibition of tyrosinase in human MNT1 cells assessed as suppression of melanin biosynthesis measured after 96 hrs. The data set is classed as cell-based.
In data set [4] the target is T1, Tyrosinase. Put plainly: Inhibition of recombinant human tyrosinase expressed in baculovirus infected Sf9 cells assessed as diphenolase activity using L-DOPA as substrate by UV-vis spectrophotometry.
The nature of data set [5]: Cytotoxicity against human MNT1 cells.
Data set [6] has as its target T2, Tyrosinase (Homo sapiens) (UniProt P14679).
T2 sequence (whole entry): T1 sequence (P14679 whole entry)
The following applies: Sf9.

`O=C1/C(=C/c2ccc(=O)n(O)c2)Oc2cc(O)ccc21`: the IC50 in data set [1] was 1.5 µM; at Tyrosinase [2] it was 16.6 µM; at Tyrosinase [3], 85.3 µM; in data set [5] it was over 500 µM. In addition, the Ki on Tyrosinase [4] was 0.35 µM.
Regarding `O=C1/C(=C/c2ccc(=O)n(O)c2)Oc2cccc(O)c21`, the Kic in data set [6] came out at 1.02 µM. In addition, the results for the IC50 (on Tyrosinase [2]; at Tyrosinase [3]; in data set [5]) were 30 µM, 120 µM and 80 µM, respectively.
Take `O=C1/C(=C/c2ccc(O)cc2O)Oc2cc(O)ccc21`: the IC50 in data set [1] was over 1000 µM.
For the molecule `O=C1/C(=C/c2ccc(O)cc2O)Oc2cccc(O)c21`, 9 µM corresponded to half-maximal inhibition in data set [1] (IC50).
Still for that read-out and setting: then `O=C1/C(=C/c2ccc(O)cc2O)Oc2cc(O)cc(O)c21`, with 300 µM.
Molecule `O=C1/C(=C/c2ccc(=O)n(O)c2)Oc2cc(O)cc(O)c21` yielded a Kic in data set [6] of 1.2 µM. The half-maximal inhibitory concentration (IC50) on Tyrosinase [2] was 34 µM; on Tyrosinase [3], 119 µM; in data set [5], over 500 µM.
In the case of `O=c1cc(CO)occ1O` [KOJIC ACID], the IC50 in data set [5] is over 80000 µM.
